ChEMBL document CHEMBL1129376, “Localizing antithrombotic and vasodilatory activity with a novel, ultrafast nitric oxide donor” (J Med Chem, 1996)

Key:
[1] = Half life of compound for dissociation in DETA and NO; type: ADME
[2] = tested on: Ovis aries; test: Intravenous dose of compound that lowered pulmonary arterial pressure (PAP) in ovine pulmonary hypertension model; Range is 0.8-13 nM/kg min; type: functional, organism-based; conditions: Artery
[3] = tested on: Ovis aries; test: Intravenous dose of compound that lowered systemic arterial pressure (SAP) in ovine pulmonary hypertension model; Range is 0.8-13 nM/kg min; type: functional, organism-based; conditions: Artery
[4] = tested on: Ovis aries; test: Intravenous dose of compound that lowered systemic arterial pressure following in ovine pulmonary hypertension model; type: functional, Artery
[5] = Half life of compound for dissociation in proline and NO; type: ADME
[6] = tested on: Ovis aries; test: Pulmonary arterial pressure (PAP) in sheep on i.v. administration of 24 nM/ kg min; type: functional, Artery
[7] = tested on: Ovis aries; test: Intravenous dose that lowered pulmonary arterial pressure withouteffect on systemic hemodynamics in sheep with drug-induced pulmonary hypertension; type: functional, Artery
[8] = Rate constant of compound for dissociation in proline and NO; type: ADME

Question: Which half-life [1] does the source give for `NCCN(CCN)/[N+]([O-])=N/O` here?
Answer: The half-life was 20 h.

Question: Which Dose (nM min-1 kg-1) [2] does the source give for SODIUM NITROPRUSSIDE here?
Answer: Its Dose (nM min-1 kg-1) is 13.

Question: And the Dose (nM min-1 kg-1) [3]?
Answer: Its Dose (nM min-1 kg-1) is 13.

Question: Which Dose [4] does the source give for `O=C([O-])[C@H]1CCCN1/[N+]([O-])=N/[O-].[Na+].[Na+]` here?
Answer: The Dose was 48 nM/min/kg.

Question: What about the T1/2 [5] of the same compound?
Answer: The T1/2 was 1.8 s.

Question: And the PAP [6]?
Answer: Its PAP is 9 mmHg.

Question: And the Dose [7]?
Answer: Its Dose is 24 nM/min/kg.

Question: And the Rate constant [8]?
Answer: The Rate constant was 0.39 s⁻¹.
